This is an account of results in paper PMC11876671, “Investigating blood–brain barrier penetration and neurotoxicity of natural products for central nervous system drug development” (Scientific Reports, 2025).

The structures appear in SMILES notation. Where a name gives a salt, the structure may show the parent alone.

One data set is described as follows: in vitro. Particulars: PAMPA, PAMPA-BBB Pe.
`CC[C@]1(O)C[C@H]2CN(CCc3c([nH]c4ccccc34)[C@@](C(=O)OC)(c3cc4c(cc3OC)N(C)[C@H]3[C@@](O)(C(=O)OC)[C@H](OC(C)=O)[C@]5(CC)C=CCN6CC[C@]43[C@@H]65)C2)C1` [V[…]] returned a Papp of 21 ×10⁻⁶ cm/s. Same read-out and setting: the same measure for `COc1cc2c(cc1OC)[C@@]13CCN4CC5=CCO[C@H]6CC(=O)N2[C@H]1[C@H]6[C@H]5C[C@H]43` [BRUCINUM]: 16 ×10⁻⁶ cm/s.

Staying with this data set, now noted: PAMPA, PAMPA-BBB Pe(10^-6 cm/sec).
`C[n+]1cccc(C(=O)[O-])c1` [TRIGONELLINE] gave an apparent permeability coefficient (Papp) below 1 ×10⁻⁶ cm/s. Same read-out and setting: in the case of `Cc1ncc(C[n+]2csc(CCO)c2C)c(N)n1` [THIAMINE MONONITRATE] it was below 1 ×10⁻⁶ cm/s; in that of `COc1cc2c(c(OC)c1OC)-c1ccc(OC)c(=O)cc1[C@@H](NC(C)=O)CC2` [COLCHCINE], below 1 ×10⁻⁶ cm/s. Still for that read-out and setting: the same measure for `CC[C@H](C)C(=O)O[C@H]1C[C@H](O)C=C2C=C[C@H](C)[C@H](CC[C@@H](O)C[C@@H](O)CC(=O)O)[C@H]21` [PRAVASTATIN SODIUM]: below 1 ×10⁻⁶ cm/s; for `CC[C@]1(O)C[C@@H]2CN(CCc3c([nH]c4ccccc34)[C@@](C(=O)OC)(c3cc4c(cc3OC)N(C)[C@H]3[C@@](O)(C(=O)OC)[C@H](OC(C)=O)[C@]5(CC)C=CCN6CC[C@]43[C@@H]65)C2)C1` [VINBLASTINE]: 5.7 ×10⁻⁶ cm/s.

On to `COc1cc(/C=C/C(N)=O)cc(OC)c1OC` [CINTRIAMIDE], for which the Papp was found to be 2.3 ×10⁻⁶ cm/s. For the compound `CNc1ccccc1C(=O)O`, the Papp worked out at 1.5 ×10⁻⁶ cm/s. Same read-out and setting: in the case of `Nc1nc(=O)[nH]c2c1ncn2[C@@H]1O[C@H](CO)[C@@H](O)[C@H]1O` [ISOGUANOSINE] it was below 1 ×10⁻⁶ cm/s.

Still in this data set, the particulars now being: PAMPA, PAMPA-BBB Pe(10^-6 cm/sec), Table S3: compounds exhibiting low PAMPA-BBB permeability.
`C[C@@]12C=Cc3occc3[C@H]1CC[C@@]13C[C@@H](CC[C@H]12)[C@@](O)(CO)C3` [KAHWEOL]: the Papp was below 1 ×10⁻⁶ cm/s. The same measure, in the same setting: the same measure for `OC[C@H]1O[C@@H](OC[C@H]2O[C@@H](OC/C=C/c3ccccc3)[C@H](O)[C@@H](O)[C@@H]2O)[C@@H](O)[C@@H]1O` [ROSARIN]: below 1 ×10⁻⁶ cm/s; for `O=c1c(O)cc([C@H]2Oc3cc(O)cc(O)c3C[C@H]2O)cc2c([C@H]3Oc4cc(O)cc(O)c4C[C@@H]3O)cc(O)c(O)c12` [THEAFLAVINE]: below 1 ×10⁻⁶ cm/s; for `C=C(NC(=O)C(=C)NC(=O)c1csc(C2=N[C@@H]3c4csc(n4)[C@H]4NC(=O)c5csc(n5)[C@H]([C@](C)(O)[C@@H](C)O)NC(=O)[C@H]5CSC(=N5)/C(=C/C)NC(=O)[C@H]([C@@H](C)O)NC(=O)c5csc(n5)[C@]3(CC2)NC(=O)[C@H](C)NC(=O)C(=C)NC(=O)[C@H](C)NC(=O)[C@H]([C@@H](C)CC)N[C@@H]2C=Cc3c([C@H](C)O)cc(nc3[C@H]2O)C(=O)O[C@@H]4C)n1)C(N)=O` [THIOSTREPTON]: below 1 ×10⁻⁶ cm/s. Same read-out and setting: in the case of `O=C/C=C/c1ccccc1` it was below 1 ×10⁻⁶ cm/s; in that of `COc1cc(/C=C/C(=O)O)ccc1O` [FERULIC ACID], 1.2 ×10⁻⁶ cm/s; in that of `O=C(O[C@@H]1Cc2c(O)cc(O)cc2O[C@@H]1c1cc(O)c(=O)c2c(O)c(O)cc([C@H]3Oc4cc(O)cc(O)c4C[C@H]3O)c2c1)c1cc(O)c(O)c(O)c1` [THEAFLAVIN MONOGALLATE], below 1 ×10⁻⁶ cm/s. Take `C[C@]1(OC(=O)/C=C/c2ccccc2)C[C@@H](O)[C@]2(O)C=CO[C@@H](O[C@@H]3O[C@H](CO)[C@@H](O)[C@H](O)[C@H]3O)[C@@H]21` [HARPAGOSIDE]: the apparent permeability coefficient (Papp) was below 1 ×10⁻⁶ cm/s. `O=C(C[C@H]1NCCC[C@@H]1O)Cn1cnc2ccccc2c1=O` [FEBRIFUGINE] gave an apparent permeability (Papp) below 1 ×10⁻⁶ cm/s. As to `CC[C@H]1CN2CC[C@]3(C(=O)Nc4ccccc43)[C@@H]2C[C@@H]1/C(=C\OC)C(=O)OC` [RHYNCHOPHYLLINE], the apparent permeability (Papp) was 6.5 ×10⁻⁶ cm/s. Still for that read-out and setting: in the case of `COc1cc(OC)c(C(C)=O)c(O)c1C` [METHYLXANTHOXYLINE] it was below 1 ×10⁻⁶ cm/s. Still for that read-out and setting: the same measure for `O=c1ccc2ccc(O[C@@H]3O[C@H](CO)[C@@H](O)[C@H](O)[C@H]3O)c(O)c2o1` [DAPHNIN]: below 1 ×10⁻⁶ cm/s. On the same count and under the same terms, in the case of `CSCCCN=C=S` [IBERVERIN] it was 9.7 ×10⁻⁶ cm/s. Compound `[O-][n+]1ccccc1SSc1cccc[n+]1[O-]` [[…]] showed a Papp below 1 ×10⁻⁶ cm/s. Still for that read-out and setting: in the case of `COC1=C2C[C@@H](C)C[C@H](OC)[C@H](O)[C@@H](C)/C=C(\C)[C@H](OC(N)=O)[C@@H](OC)/C=C\C=C(/C)C(=O)NC(=CC1=O)C2=O` [GELDANAMYCIN] it was below 1 ×10⁻⁶ cm/s; in that of `CCCCCCCCCCCCCCCCCCCC(=O)O` [[…]], below 1 ×10⁻⁶ cm/s.

On to `COc1ccc2[nH]cc(CCNC(C)=O)c2c1` [MELATONIN], for which the Papp was 2.8 ×10⁻⁶ cm/s. Same read-out and setting: the same measure for `NCCCS(=O)(=O)O` [TR[…]]: 1.7 ×10⁻⁶ cm/s.

`CC(=O)NCCc1c[nH]c2ccc(O)cc12` [NORMELATONIN] showed an apparent permeability coefficient (Papp) below 1 ×10⁻⁶ cm/s. The same measure, in the same setting: in the case of `CC(=O)Nc1c2sscc-2n(C)c1=O` [THIOLUTIN] it was below 1 ×10⁻⁶ cm/s; in that of `CNc1ccc(C(=O)CC(O)CCC(C)C2OC(=O)CC(O)CC(=O)CC(O)CC(O)CC(O)CC(O)CC3(O)CC(O)C(C(=O)OC)C(CC(O[C@@H]4O[C@H](C)[C@@H](O)[C@H](N)[C@@H]4O)/C=C/C=C/C=C/C=C/C=C/C=C/C=C/C2C)O3)cc1` (stereo partly drawn) [M[…]], below 1 ×10⁻⁶ cm/s. For the compound `CO[C@@H]1[C@H](O)C[C@@H](O[C@@H]2C[C@H](Oc3cc4cc5c(c(O)c4c(O)c3C)C(=O)[C@@H](O[C@H]3C[C@@H](O[C@H]4C[C@@H](O[C@H]6C[C@](C)(O)[C@@H](OC(C)=O)[C@H](C)O6)[C@H](O)[C@@H](C)O4)[C@H](O)[C@@H](C)O3)[C@H]([C@H](OC)C(=O)[C@@H](O)[C@@H](C)O)C5)O[C@H](C)[C@@H]2OC(C)=O)O[C@@H]1C` [CHROMOMYCIN A3], the apparent permeability coefficient (Papp) is below 1 ×10⁻⁶ cm/s.

`CC(C)=CCC/C(C)=C/COc1c2ccoc2cc2oc(=O)ccc12` [BERGAMOTTIN]: the Papp came out at 5.8 ×10⁻⁶ cm/s. The same measure, in the same setting: in the case of `C[N+]1([O-])CCC[C@@H]1c1cccnc1` (stereo partly drawn) [NICOTINE N'-OXIDE] it was 2.8 ×10⁻⁶ cm/s; in that of `O=C(O)c1ccc(O)c(O)c1` [PROT[…]], below 1 ×10⁻⁶ cm/s; in that of `COC(=O)C[C@](O)(CCC(C)(C)O)C(=O)O[C@@H]1C(OC)=C[C@]23CCCN2CCc2cc4c(cc2[C@H]13)OCO4` [HARRINGTONINE], below 1 ×10⁻⁶ cm/s. On the same count and under the same terms, in the case of `C[C@H]1O[C@H](O[C@H]2[C@H](O)[C@@H](O)[C@@H](O)[C@H](O)[C@@H]2O)[C@@H](N)C[C@@H]1NC(=N)C(=O)O` [KASUGAMYCIN HYDROCHLORIDE] it was below 1 ×10⁻⁶ cm/s. Still for that read-out and setting: the same measure for `O=c1c(O[C@@H]2O[C@H](CO)[C@H](O)[C@H](O)[C@H]2O)c(-c2ccc(O)c(O)c2)oc2cc(O)cc(O)c12` [HYPEROSIDE]: 1.6 ×10⁻⁶ cm/s. Regarding `COc1ccc2c(c1OC)CN1CCc3cc4c(cc3[C@@H]1C2)OCO4` [CANADINE], the Papp was found to be 5.5 ×10⁻⁶ cm/s. `O=C(O)/C=C/C=C/c1ccc2c(c1)OCO2` [PIPERIC ACID] came in with an apparent permeability coefficient (Papp) below 1 ×10⁻⁶ cm/s. The same measure, in the same setting: the same measure for `O=c1cc(-c2ccc(O)cc2)oc2cc(O[C@H]3OC(CO)C(O)C(O)C3O)cc(O)c12` (stereo partly drawn) [COSMOSIOSIDE]: 1.6 ×10⁻⁶ cm/s; for `O=c1cc(O)cc(/C=C/c2ccc(O)c(O)c2)o1` [HISPIDIN]: below 1 ×10⁻⁶ cm/s; for `COC(=O)C1=CO[C@@H](O[C@@H]2O[C@H](CO)[C@@H](O)[C@H](O)[C@H]2O)[C@H]2[C@@H]1C(=O)C[C@@H]2C` [VERBENALIN]: below 1 ×10⁻⁶ cm/s.

As to `O=C1C=CC(=O)c2c(O)cccc21` [JUGLONE], the Papp was 4.1 ×10⁻⁶ cm/s.

Regarding `O=c1c(O)c(-c2ccc(O[C@@H]3O[C@H](CO)[C@@H](O)[C@H](O)[C@H]3O)c(O)c2)oc2cc(O)cc(O)c12` [SPIRAEOSIDE], the apparent permeability (Papp) was below 1 ×10⁻⁶ cm/s. On the same count and under the same terms, in the case of `CC(=O)CCc1ccc(O)cc1` [RASPBERRY KETONE] it was 4.1 ×10⁻⁶ cm/s.

The data set is the same for the next values; noted with them: PAMPA, PAMPA-BBB Pe, Table S2: compounds exhibiting moderate to high PAMPA-BBB permeability.
In turn, `COc1ccc(-c2cnc(-c3cccnc3)o2)cc1` [O-[…]] displayed a Papp of 262 ×10⁻⁶ cm/s.

`COC(=O)C=Cc1ccccc1` [METHYL CINNAMATE] displayed a Papp of 98 ×10⁻⁶ cm/s. Still for that read-out and setting: the same measure for `COc1ccc(/C=C/c2cc(OC)cc(=O)o2)cc1` [YANGONIN]: 156 ×10⁻⁶ cm/s.

As to `CC(=O)OCC=Cc1ccccc1` [CINNAMYL ACETATE], the apparent permeability coefficient (Papp) is 88 ×10⁻⁶ cm/s. Same read-out and setting: the same measure for `Cn1c2cccc(=O)c-2nc2ccccc21` [PYOCYANINE]: 299 ×10⁻⁶ cm/s. The same measure, in the same setting: in the case of `CN1C[C@H](CO)C=C2c3cccc4[nH]cc(c34)C[C@H]21` [LYSERGOL] it was 51 ×10⁻⁶ cm/s; in that of `CC1(C)O[C@@H]1COc1c2occc2cc2ccc(=O)oc12` [HERACLENIN], 210 ×10⁻⁶ cm/s; in that of `COc1cc2c(cc1O)C[C@H]1c3c(cc(OC)c(O)c3-2)CCN1C` [ISOBOLDINE], 35 ×10⁻⁶ cm/s. On the same count and under the same terms, in the case of `C[C@H]1COC2=C1C(=O)C(=O)c1c2ccc2c1CCCC2(C)C` [[…]] it was 12 ×10⁻⁶ cm/s.

As to `CCc1ccc(O)c(OC)c1` [4-ETHYLGUAIACOL], the apparent permeability (Papp) stood at 116 ×10⁻⁶ cm/s. Take `CC(C)=CCOc1c2occc2cc2ccc(=O)oc12` [PENTOSALEN]: the Papp worked out at 195 ×10⁻⁶ cm/s. Same read-out and setting: in the case of `O=C(/C=C/c1ccccc1)c1ccc(O)cc1O` it was 223 ×10⁻⁶ cm/s; in that of `CCCCC[C@H](O)CC(=O)CCc1ccc(O)c(OC)c1` [GINGEROL], 69 ×10⁻⁶ cm/s. The same measure, in the same setting: in the case of `COC(=O)C1=CO[C@@H](C)[C@H]2CN3CCc4c([nH]c5ccccc45)[C@@H]3C[C@H]12` [RAUBASINE HYDROCHLORIDE] it was 125 ×10⁻⁶ cm/s; in that of `N[C@@H](Cc1cc(I)c(Oc2cc(I)c(O)c(I)c2)c(I)c1)C(=O)O` [LEVOTHYROXINE], 83 ×10⁻⁶ cm/s; in that of `COc1cc2c(c(OC)c1OC)-c1c(cc(OC)c(OC)c1OC)C[C@H](C)[C@H](C)C2` [S[…]], 171 ×10⁻⁶ cm/s.

With `CC(=O)c1ccc[nH]1` [METHYL PYRROL-2-YL KETONE], the Papp was found to be 28 ×10⁻⁶ cm/s.

In turn, `O=C1c2c(O)cc(O)cc2O[C@@H](c2ccc(O)cc2)[C@@H]1O` [AROMADENDRINE] displayed a Papp of 58 ×10⁻⁶ cm/s.

As to `C=C[C@H]1C[N@@]2CC[C@H]1C[C@@H]2[C@@H](O)c1ccnc2ccccc12` [CINCHONINE], the apparent permeability (Papp) amounted to 22 ×10⁻⁶ cm/s. Still for that read-out and setting: the same measure for `CC(C)c1cccc(O)c1` [M-ISOPROPYLPHENOL]: 149 ×10⁻⁶ cm/s; for `COc1ccccc1/C=C/C=O` [2'-METHOXYCINNAMALDEHYDE]: 122 ×10⁻⁶ cm/s; for `COc1cc(-c2cc(=O)c3c(O)cc(O)cc3o2)ccc1O` [CHRYSERIOL]: 179 ×10⁻⁶ cm/s. Still for that read-out and setting: in the case of `COc1ccc(-c2oc3cc(O[C@@H]4O[C@H](CO)[C@@H](O)[C@H](O)[C@H]4O)c(OC)c(O)c3c(=O)c2OC)cc1O` [CENTAUREIN] it was 38 ×10⁻⁶ cm/s.
